In patent US8927717B1, “Thiochromeno[2,3-c]quinolin-12-one derivatives, preparation method and application thereof” (National Defense Medical Center, priority 2014, dated 2015):

How the values were obtained:
[1] = system: HL-60(TB); assay type: cell-based; settings: for Growth percent HL-60(TB): Leukemia, 48 hours, SRB
[2] = system: HOP-62; assay type: cell-based; settings: for Growth percent HOP-62: Non-small cell lung cancer, 48 hours, SRB
[3] = system: HOP-92; assay type: cell-based; settings: 10^−5 molar
[4] = system: NCI-H460; assay type: cell-based; settings: for Growth percent NCI-H460: Non-small cell lung cancer, 48 hours, SRB
[5] = system: COLO 205; assay type: cell-based; settings: for Growth percent COLO 205: Colon cancer, 48 hours, SRB
[6] = system: HCC-2998; assay type: cell-based; settings: for Growth percent HCC-2998: Colon cancer, 48 hours, SRB
[7] = system: HT29; assay type: cell-based; settings: for Growth percent HT29: Colon cancer, 48 hours, SRB
[8] = system: SW-620; assay type: cell-based; settings: for Growth percent SW-620: Colon cancer, 48 hours, SRB
[9] = system: SF-539; assay type: cell-based
[10] = system: SNB-19; assay type: cell-based; settings: for Growth percent SNB-19: CNS cancer, 48 hours, SRB
[11] = system: SNB-75; assay type: cell-based; settings: for Growth percent SNB-75: CNS cancer, 48 hours, SRB
[12] = system: M14; assay type: cell-based; settings: for Growth percent M14: Melanoma, 48 hours, SRB
[13] = system: SK-MEL-2; assay type: cell-based
[14] = system: UACC-257; assay type: cell-based; settings: for Growth percent UACC-257: Melanoma, 48 hours, SRB
[15] = system: IGROV1; assay type: cell-based; settings: for Growth percent IGROV1: Ovarian cancer, 48 hours, SRB
[16] = system: OVCAR-3; assay type: cell-based; settings: for Growth percent OVCAR-3: Ovarian cancer, 48 hours, SRB
[17] = system: OVCAR-4; assay type: cell-based; settings: for Growth percent OVCAR-4: Ovarian cancer, 10^−5 molar, 48 hours, SRB
[18] = system: ACHN; assay type: cell-based; settings: for Growth percent ACHN: Renal cancer, 48 hours, SRB
[19] = system: CAKI-1; assay type: cell-based; settings: for Growth percent CAKI-1: Renal cancer, 10^−5 molar, 48 hours, SRB
[20] = system: HS 578T; assay type: cell-based; settings: for Growth percent HS 578T: Breast cancer, 48 hours, SRB
[21] = Homo sapiens, HOP-62, five dose
[22] = Homo sapiens, NCI-H460, five dose
[23] = Homo sapiens, COLO 205, five dose
[24] = Homo sapiens, HCC-2998, five dose
[25] = Homo sapiens, HT-29, HT29, five dose
[26] = Homo sapiens, SW-620, five dose
[27] = Homo sapiens, SF-539, five dose
[28] = Homo sapiens, SNB-19, five dose
[29] = Homo sapiens, SNB-75, five dose
[30] = Homo sapiens, SK-Mel-2, five dose

Compound `CCNc1nc2ccccc2c2c(=O)c3cc(Cl)ccc3sc12` [Compound N2, 10-Chloro-6-ethylamino-12H-thiochromeno[2,3-c]quinolin-12-one] has a TGI ([1]; HL-60(TB), five dose) greater than 100 µM, a GI50 ([1]; Homo sapiens, HL-60(TB), five dose) greater than 100 µM and a CC50 ([1]; Homo sapiens, HL-60(TB), five dose, read-out: LC50 (the source's name)) greater than 100 µM. The “Growth percent HL-60(TB)” value ([1]; 10^−5 molar) was 103.33%, the TGI ([2]; HOP-62, five dose) was 35.20 µM and the GI50 [2, 21] was 13.3 µM. The LC50 (lethal concentration 50) [2, 21] was 93.1 µM, the “Growth percent HOP-62” value ([2]; 10^−5 molar) was 57.49% and the “Growth percent HOP-92” value ([3]; Non-small cell lung cancer, 48 hours, SRB) was −0.07%. It also gave a GI50 [4, 22] greater than 100 µM, an LC50 [4, 22] greater than 100 µM and a TGI ([4]; NCI-H460, five dose) greater than 100 µM. The “Growth percent NCI-H460” value ([4]; 10^−5 molar) was 53.33%, the TGI ([5]; COLO 205, five dose) was greater than 100 µM and the “Growth percent COLO 205” value ([5]; 10^−5 molar) was 82.36%. The GI50 [5, 23] was greater than 100 µM, the LC50 [5, 23] was greater than 100 µM and the “Growth percent HCC-2998” value ([6]; 10^−5 molar) was 98.02%. It also gave a TGI ([6]; HCC-2998, five dose) greater than 100 µM, a GI50 [6, 24] greater than 100 µM and an LC50 [6, 24] greater than 100 µM. For the same compound, the “Growth percent HT29” value ([7]; 10^−5 molar) was 68.21%, the TGI ([7]; HT29, five dose) was greater than 100 µM and the GI50 [7, 25] was greater than 100 µM. For the same compound, the LC50 (concentration killing 50% of cells) [7, 25] was greater than 100 µM, the “Growth percent SW-620” value ([8]; 10^−5 molar) was 84.65% and the GI50 [8, 26] was greater than 100 µM. The LC50 [8, 26] was greater than 100 µM, the TGI ([8]; SW-620, five dose) was greater than 100 µM and the “Growth percent SF-539” value ([9]; CNS cancer, 10^−5 molar, 48 hours, SRB) was 60.35%. The GI50 [9, 27] was 10.1 µM, the LC50 [9, 27] was greater than 100 µM and the TGI ([9]; SF-539, five dose) was 58.50 µM. The “Growth percent SNB-19” value ([10]; 10^−5 molar) was 84.19%, the GI50 [10, 28] was 26.6 µM and the LC50 (concentration killing 50% of cells) [10, 28] was greater than 100 µM. The TGI ([10]; SNB-19, five dose) was 81.10 µM, the “Growth percent SNB-75” value ([11]; 10^−5 molar) was 12.12% and the GI50 [11, 29] was 4.96 µM. The LC50 [11, 29] was 60.2 µM, the TGI ([11]; SNB-75, five dose) was 22.00 µM and the GI50 ([12]; Homo sapiens, M14, five dose) was greater than 100 µM. For the same compound, the LC50 ([12]; Homo sapiens, M14, five dose) was greater than 100 µM, the TGI ([12]; M14, five dose) was greater than 100 µM and the “Growth percent M14” value ([12]; 10^−5 molar) was 91.72%. The GI50 [13, 30] was 16.3 µM, the LC50 [13, 30] was greater than 100 µM and the “Growth percent SK-MEL-2” value ([13]; Melanoma, 10^−5 molar, 48 hours, SRB) was 76.15%. The TGI ([13]; SK-Mel-2, five dose) was 43.2 µM, the GI50 ([14]; Homo sapiens, UACC-257, five dose) was greater than 100 µM and the CC50 ([14]; Homo sapiens, UACC-257, five dose, read-out: LC50 (the source's name)) was greater than 100 µM. The “Growth percent UACC-257” value ([14]; 10^−5 molar) was 75.21%, the TGI ([14]; UACC-257, five dose) was greater than 100 µM and the GI50 ([15]; Homo sapiens, IGROV-1, IGROV1, five dose) was 11.9 µM. The CC50 ([15]; Homo sapiens, IGROV-1, IGROV1, five dose, read-out: LC50 (the source's name)) was greater than 100 µM, the TGI ([15]; IGROV1, five dose) was 54.40 µM and the “Growth percent IGROV1” value ([15]; 10^−5 molar) was 59.26%. It also gave a GI50 ([16]; Homo sapiens, OVCAR-3, five dose) of 52.4 µM, a CC50 ([16]; Homo sapiens, OVCAR-3, five dose, read-out: LC50 (the source's name)) greater than 100 µM and a TGI ([16]; OVCAR-3, five dose) greater than 100 µM. The “Growth percent OVCAR-3” value ([16]; 10^−5 molar) was 76.51%, the GI50 ([17]; Homo sapiens, OVCAR-4, five dose) was greater than 100 µM and the CC50 ([17]; Homo sapiens, OVCAR-4, five dose, read-out: LC50 (the source's name)) was greater than 100 µM. For the same compound, the TGI ([17]; OVCAR-4, five dose) was greater than 100 µM, the “Growth percent OVCAR-4” value [17] was 23.19% and the TGI ([18]; ACHN, five dose) was greater than 100 µM. The GI50 ([18]; Homo sapiens, ACHN, five dose) was 8.66 µM, the CC50 ([18]; Homo sapiens, ACHN, five dose, read-out: LC50 (the source's name)) was greater than 100 µM and the “Growth percent ACHN” value ([18]; 10^−5 molar) was 43.77%. For the same compound, the TGI ([19]; CAKI-1, five dose) was greater than 100 µM, the GI50 ([19]; Homo sapiens, CAKI-1, five dose) was 26.4 µM and the CC50 ([19]; Homo sapiens, CAKI-1, five dose, read-out: LC50 (the source's name)) was greater than 100 µM. For the same compound, the “Growth percent CAKI-1” value [19] was 72.44%, the “Growth percent HS 578T” value ([20]; 10^−5 molar) was 36.37% and the TGI ([20]; HS 578T, five dose) was 65.5 µM. The GI50 ([20]; Homo sapiens, HS 578T, five dose) was 9.64 µM and the CC50 ([20]; Homo sapiens, HS 578T, five dose, read-out: LC50 (the source's name)) was greater than 100 µM.

In the case of `CC(C)CC(C)Nc1nc2ccccc2c2c(=O)c3cc(Cl)ccc3sc12` (stereo not drawn) [Compound N13, 10-Chloro-6-((4-methylpentan-2-yl)amino)-12H-thiochromeno[2,3-c]quinolin-12-one], the “Growth percent HL-60(TB)” value ([1]; 10^−5 molar) is reported as 103.96%, the “Growth percent HOP-62” value ([2]; 10^−5 molar) is reported as 88.69% and the “Growth percent NCI-H460” value ([4]; 10^−5 molar) is reported as 95.17%. For the same compound, the “Growth percent COLO 205” value ([5]; 10^−5 molar) was 93.45%, the “Growth percent HCC-2998” value ([6]; 10^−5 molar) was 112.26% and the “Growth percent HT29” value ([7]; 10^−5 molar) was 121.02%. For the same compound, the “Growth percent SW-620” value ([8]; 10^−5 molar) was 92.80%, the “Growth percent SNB-19” value ([10]; 10^−5 molar) was 106.79% and the “Growth percent SNB-75” value ([11]; 10^−5 molar) was 85.02%. For the same compound, the “Growth percent M14” value ([12]; 10^−5 molar) was 94.27%, the “Growth percent UACC-257” value ([14]; 10^−5 molar) was 114.40% and the “Growth percent IGROV1” value ([15]; 10^−5 molar) was 74.77%. The “Growth percent OVCAR-3” value ([16]; 10^−5 molar) was 115.22%, the “Growth percent OVCAR-4” value [17] was 86.07% and the “Growth percent ACHN” value ([18]; 10^−5 molar) was 91.24%. For the same compound, the “Growth percent CAKI-1” value [19] was 86.38%, the “Growth percent HS 578T” value ([20]; 10^−5 molar) was 89.33% and the melting point was 176 to 177 °C.

`O=c1c2cc(Cl)ccc2sc2c(NCCN3CCOCC3)nc3ccccc3c12` [Compound N16, 10-Chloro-6-((2-morpholinoethyl)amino)-12H-thiochromeno[2,3-c]quinolin-12-one] showed a Growth percent ([1]; HL-60(TB), 10^−5 molar) of 104.97%, a Growth percent ([2]; HOP-62, 10^−5 molar) of 67.97% and a Growth percent ([3]; HOP-92) of 58.79%. For the same compound, the Growth percent ([4]; NCI-H460, 10^−5 molar) was 100.49%, the Growth percent ([5]; COLO 205, 10^−5 molar) was 79.39% and the Growth percent ([6]; HCC-2998, 10^−5 molar) was 90.51%. For the same compound, the Growth percent ([7]; HT29, 10^−5 molar) was 43.13%, the Growth percent ([8]; SW-620, 10^−5 molar) was 99.65% and the Growth percent ([9]; SF-539, 10^−5 molar) was 76.72%. It also gave a Growth percent ([10]; SNB-19, 10^−5 molar) of 90.44%, a Growth percent ([11]; SNB-75, 10^−5 molar) of 60.74% and a Growth percent ([12]; M14, 10^−5 molar) of 99.59%. The Growth percent ([13]; SK-Mel-2, 10^−5 molar) was 94.52%, the Growth percent ([14]; UACC-257, 10^−5 molar) was 106.52% and the Growth percent ([15]; IGROV1, 10^−5 molar) was 74.11%. For the same compound, the Growth percent ([16]; OVCAR-3, 10^−5 molar) was 97.14%, the Growth percent ([18]; ACHN, 10^−5 molar) was 91.61% and the Growth percent ([20]; HS 578T, 10^−5 molar) was 89.65%. The melting point was 189 to 190 °C.
